Results: US20060035942A1, “Fungicidal combinations of active substances” (priority 2002, published 2006)

Each compound was assayed on Pyrenophora teres (assay: Pyrenophora teres test (barley)/curative). Conditions: curative, application rate 100 g/ha, evaluation 7 days after inoculation.
Assay type: in vivo
Protocol: Pyrenophora teres Test (Barley)/Curative • Solvent: 25 parts by weight of N,N-dimethylacetamide • Emulsifier: 0.6 part by weight of alkylaryl polyglycol ether To produce a suitable preparation of active compound, 1 part by weight of active compound is mixed with the stated amounts of solvent and emulsifier, and the concentrate is diluted with water to the desired concentration. To test for curative activity, young plants are sprayed with a conidia suspension of Pyrenophora teres. The plants remain in an incubation cabin at 20° C. and 100% relative atmospheric humidity for 48 hours. The plants are then sprayed with the preparation of active compound at the stated application rate. The plants are placed in a greenhouse at a temperature of about 20° C. and a relative atmospheric humidity of about 80%. Evaluation is carried out 7 days after the inoculation. 0% means an efficacy which corresponds to that of the control, whereas an efficacy of 100% means that no infection is observed.

SMILES	Efficacy in % [%]
CON=C(C(=O)OC)c1ccccc1CO/N=C(\C)c1cccc(C(F)(F)F)c1 [Ex. (I)]	67
OC(Cc1ccccc1Cl)(Cn1nc[nH]c1=S)C1(Cl)CC1 (stereo not drawn) [Ex. (II)]	56
CC(C)(C)C(O)(CCc1ccc(Cl)cc1)Cn1cncn1 (stereo not drawn) [Ex. (III)]	22
